Laboratory results as given in paper PMC9945177, “Nature-Derived Epoxy Resin Monomers with Reduced Sensitizing Capacity—Isosorbide-Based Bis-Epoxides” (Chemical Research in Toxicology, 2023).

Key:
[1] = skin permeability, static Franz diffusion cells; type: in vitro ADME, pig
Experimental: For the permeability experiments, ultra-performance liquid chromatography-electrospray ionization tandem mass spectroscopy (UPLC)-ESI-MS/MS analysis was carried out using a Xevo TQ-S micro triple quadrupole mass spectrometer equipped with an electrospray interface and coupled to an Acquity UPLC H-Class Plus system from Waters. Separation was achieved on an ACE Excel C18-PFP column (75 × 2.1 mm, 1.7 μm) from Advanced Chromatography Technologies Ltd. (Aberdeen, Scotland). Mobile phase A consisted of 0.1% formic acid and 5% acetonitrile in water, whereas mobile phase B consisted of 0.1% formic acid and 5% water in acetonitrile. The gradient program used was as follows: 20% B (0–2 min), 20–80% B (2–9 min), 80–95% B (9–9.1 min), 95% B (9.1–12 min), 95–20% B (12–12.1 min), 20% B (12.1–15 min). The flow rate was set to 0.3 mL/min and the injection volume was 2 μL. Analysis was performed in positive ionization mode using a Multiple Reaction Monitoring (MRM) method. The optimal parameters were capillary voltage 1.5 (kV), desolvation temperature 650 °C, desolvation gas 850 L/h, and cone 100 L/h.
The Franz diffusion cell experiment was based on the OECD Test Guidelines.[35] Static Franz diffusion cells equipped with pig ex vivo epidermis were used to assess the permeability of isosorbide bis-epoxides 2 and 3. Freshly cut pig ears were received frozen and stored at −20 °C until used for permeability assessment. One day before the experiment, the ears were transferred at +4 °C and allowed to thaw. The ears were then washed, shaved, and carefully cut with a Watson Dermatome skin graft knife to obtain 0.1 mm pieces of the epidermis layer. The integrity of the skin (transparent and intact) was determined by ocular inspection. Thereafter, the epidermis layer was cut and positioned between the donor and receptor compartment of each Franz cell. The receptor compartments were filled with 5 mL of ethanol/PBS (1:1) and equipped with a small magnetic stir bar to ensure mixing while maintaining a constant temperature of the circulating water at 37 °C. To equilibrate the skin, the upper chamber was filled with 0.5 mL of ethanol/PBS (1:1) which was later removed and replaced with the donor solution (50 μL) containing either 2 or 3 (0.1 mg/mL) or DGEBA (0.1 mg/mL) used as a positive control. A procedural blank containing only 50 μL of ethanol/PBS (1:1) in the donor compartment was also included in the experimental setup. Samples of 100 μL were collected after 0–2 min, 1, 2, 3, 4, 5, and 6 h. At each timepoint, a sample aliquot was removed and 100 μL of ethanol/PBS (1:1) was added to the receptor compartment to keep the volume constant. After 6 h, the skin from each Franz cell was extracted overnight in 5 mL of ethanol/PBS (1,1). Triplicate experiments were performed for each compound. The obtained samples were analyzed with UPLC-ESI-MS/MS (see Figure S2 for parameters) and quantification was based on external calibration curves. The limit of quantification (LOQ) was determined by the analysis of the analyte at low concentration and was calculated as 10 times the signal-to-noise ratio.

[2] = parameters: method as in Ponting et al. 26; settings: polymer, TGA under nitrogen; ref Ponting et al. 26; cited from earlier work
Female CBA/Ca mice = settings: cited from earlier work
guinea pig = settings: cited from earlier work
[3] = Extract: skin extracted overnight after 6 h

With CC(C)(c1ccc(OCC2CO2)cc1)c1ccc(OCC2CO2)cc1 (stereo not drawn) [DGEBA, diglycidyl ether of bisphenol A, reference compound] the permeation of epidermis ([1]; 6 h experiment, donor 0.1 mg/mL) was “observed”, the “Average (µM)” value [1, 3] was 0.206 µM and the “Average (µg/ml)” value [1, 3] was 0.0700 µg/mL. For the same compound, the “Replicate 1” value [1, 3] was 0.0658 µg/mL, the “Replicate 2 (µg/ml)” value [1, 3] was “< LOQ” and the “Replicate 3” value [1, 3] was 0.0742 µg/mL. For the same compound, the recovery at 6 h, 0.1 mg/mL ([1]; pig, w/w %, sum of receptor compartment after 6 h and overnight skin extraction) was 35%, the “Average (µM)” value ([1]; receptor fluid, timepoint 0 h) was 0 µM and the “Average (µg/ml)” value ([1]; receptor fluid, timepoint 0 h) was 0 µg/mL. For the same compound, the “Replicate 1 (µg/ml)” value ([1]; receptor fluid, timepoint 0 h) was “< LOQ”, the “Replicate 2 (µg/ml)” value ([1]; receptor fluid, timepoint 0 h) was “< LOQ” and the “Replicate 3 (µg/ml)” value ([1]; receptor fluid, timepoint 0 h) was “< LOQ”. The “Average (µM)” value ([1]; receptor fluid, timepoint 1 h) was 0 µM, the “Average (µg/ml)” value ([1]; receptor fluid, timepoint 1 h) was 0 µg/mL and the “Replicate 1 (µg/ml)” value ([1]; receptor fluid, timepoint 1 h) was “< LOQ”. The “Replicate 2 (µg/ml)” value ([1]; receptor fluid, timepoint 1 h) was “< LOQ”, the “Replicate 3 (µg/ml)” value ([1]; receptor fluid, timepoint 1 h) was “< LOQ” and the “Average (µM)” value ([1]; receptor fluid, timepoint 2 h) was 0.595 µM. For the same compound, the “Average (µg/ml)” value ([1]; receptor fluid, timepoint 2 h) was 0.203 µg/mL, the “Replicate 1” value ([1]; receptor fluid, timepoint 2 h) was 0.315 µg/mL and the “Replicate 2” value ([1]; receptor fluid, timepoint 2 h) was 0.184 µg/mL. The “Replicate 3” value ([1]; receptor fluid, timepoint 2 h) was 0.108 µg/mL, the “Average (µM)” value ([1]; receptor fluid, timepoint 3 h) was 0.818 µM and the “Average (µg/ml)” value ([1]; receptor fluid, timepoint 3 h) was 0.278 µg/mL. The “Replicate 1” value ([1]; receptor fluid, timepoint 3 h) was 0.419 µg/mL, the “Replicate 2” value ([1]; receptor fluid, timepoint 3 h) was 0.239 µg/mL and the “Replicate 3” value ([1]; receptor fluid, timepoint 3 h) was 0.177 µg/mL. The “Average (µM)” value ([1]; receptor fluid, timepoint 4 h) was 0.868 µM, the “Average (µg/ml)” value ([1]; receptor fluid, timepoint 4 h) was 0.296 µg/mL and the “Replicate 1” value ([1]; receptor fluid, timepoint 4 h) was 0.456 µg/mL. The “Replicate 2” value ([1]; receptor fluid, timepoint 4 h) was 0.229 µg/mL, the “Replicate 3” value ([1]; receptor fluid, timepoint 4 h) was 0.202 µg/mL and the “Average (µM)” value ([1]; receptor fluid, timepoint 5 h) was 0.851 µM. The “Average (µg/ml)” value ([1]; receptor fluid, timepoint 5 h) was 0.290 µg/mL, the “Replicate 1” value ([1]; receptor fluid, timepoint 5 h) was 0.436 µg/mL and the “Replicate 2” value ([1]; receptor fluid, timepoint 5 h) was 0.237 µg/mL. For the same compound, the “Replicate 3” value ([1]; receptor fluid, timepoint 5 h) was 0.196 µg/mL, the “Average (µM)” value ([1]; receptor fluid, timepoint 6 h) was 0.817 µM and the “Average (µg/ml)” value ([1]; receptor fluid, timepoint 6 h) was 0.278 µg/mL. For the same compound, the “Replicate 1” value ([1]; receptor fluid, timepoint 6 h) was 0.406 µg/mL, the “Replicate 2” value ([1]; receptor fluid, timepoint 6 h) was 0.218 µg/mL and the “Replicate 3” value ([1]; receptor fluid, timepoint 6 h) was 0.210 µg/mL. The “amount in receptor fluid after 6 h (%)” value ([1]; w/w %) was 27.8 ± 9.0%, the “amount on/in skin (%)” value ([1]; w/w %, overnight skin extraction after 6 h) was 7.0 ± 0.4% and the “recovery (%)” value ([1]; w/w %, sum of receptor compartment after 6 h and overnight skin extraction) was 34.8 ± 9.4%. The “Ea (activation energy for the decomposition of the cured epoxy resins)” value [2] was 40.2 kcal/mol, the “IDT (initial decomposition temperature)” value [2] was 358 °C and the “Rmax (maximum weight loss rate)” value [2] was “–2.17 %/°C”. For the same compound, the “Tmax (temperature at the maximum rate of weight loss)” value [2] was 408 °C, the EC3 (Female CBA/Ca mice) was 0.036 M and the “skin sensitizer classification in guinea pig maximization test” value (guinea pig) was “strong”.
